Assay results from ChEMBL document CHEMBL3784934, “N-Alkylpyrido[1',2':1,5]pyrazolo-[4,3-d]pyrimidin-4-amines: A new series of negative allosteric modulators of mGlu1/5 with CNS exposure in rodents” (Bioorg Med Chem Lett, 2016).

Legend:
Format in all cases: functional, cell-based
[1] = biological target: Metabotropic glutamate receptor 5 (Rattus norvegicus) (UniProt P31424); assay: Negative allosteric modulation of rat mGluR5 expressed in HEK293 cells assessed as calcium mobilization at 30 uM by calcium mobilization assay relative to 100 uM glutamate
Chain of Metabotropic glutamate receptor 5 (Rattus norvegicus) (P31424 21-1203 limits assumed): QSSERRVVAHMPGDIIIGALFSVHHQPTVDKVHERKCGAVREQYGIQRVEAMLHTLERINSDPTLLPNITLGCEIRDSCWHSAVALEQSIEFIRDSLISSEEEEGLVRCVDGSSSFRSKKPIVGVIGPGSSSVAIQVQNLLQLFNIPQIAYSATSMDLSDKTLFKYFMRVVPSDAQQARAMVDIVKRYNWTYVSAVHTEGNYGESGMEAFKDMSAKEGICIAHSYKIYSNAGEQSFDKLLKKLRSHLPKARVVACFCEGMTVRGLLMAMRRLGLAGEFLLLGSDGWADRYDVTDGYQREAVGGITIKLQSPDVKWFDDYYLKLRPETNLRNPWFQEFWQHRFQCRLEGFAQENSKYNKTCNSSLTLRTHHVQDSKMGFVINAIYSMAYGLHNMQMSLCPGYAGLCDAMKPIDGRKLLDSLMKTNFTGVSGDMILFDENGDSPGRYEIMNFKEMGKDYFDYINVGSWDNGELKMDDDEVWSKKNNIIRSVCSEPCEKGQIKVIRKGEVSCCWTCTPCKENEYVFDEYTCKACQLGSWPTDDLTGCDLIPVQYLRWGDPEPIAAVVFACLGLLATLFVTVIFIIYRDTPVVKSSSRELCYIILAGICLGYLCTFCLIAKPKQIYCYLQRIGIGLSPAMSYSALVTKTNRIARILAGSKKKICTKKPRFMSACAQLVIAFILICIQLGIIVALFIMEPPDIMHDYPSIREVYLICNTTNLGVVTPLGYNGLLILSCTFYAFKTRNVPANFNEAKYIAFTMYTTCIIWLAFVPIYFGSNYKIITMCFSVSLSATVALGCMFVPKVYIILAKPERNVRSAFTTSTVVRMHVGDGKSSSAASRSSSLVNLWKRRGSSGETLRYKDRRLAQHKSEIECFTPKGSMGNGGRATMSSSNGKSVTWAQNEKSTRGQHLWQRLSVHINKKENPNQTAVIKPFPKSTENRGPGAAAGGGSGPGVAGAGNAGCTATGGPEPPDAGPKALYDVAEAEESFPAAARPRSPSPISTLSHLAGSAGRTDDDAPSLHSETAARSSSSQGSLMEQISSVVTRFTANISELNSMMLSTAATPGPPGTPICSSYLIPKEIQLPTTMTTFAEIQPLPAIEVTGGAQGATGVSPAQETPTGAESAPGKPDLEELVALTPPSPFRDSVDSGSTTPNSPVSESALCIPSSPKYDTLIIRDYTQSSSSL

[2] = biological target: Metabotropic glutamate receptor 5 (Rattus norvegicus, UniProt P31424); assay: Negative allosteric modulation of rat mGluR5 expressed in HEK293 cells assessed as inhibition of glutamate induced calcium mobilization by calcium mobilization assay
Chain of Metabotropic glutamate receptor 5 (P31424 whole entry): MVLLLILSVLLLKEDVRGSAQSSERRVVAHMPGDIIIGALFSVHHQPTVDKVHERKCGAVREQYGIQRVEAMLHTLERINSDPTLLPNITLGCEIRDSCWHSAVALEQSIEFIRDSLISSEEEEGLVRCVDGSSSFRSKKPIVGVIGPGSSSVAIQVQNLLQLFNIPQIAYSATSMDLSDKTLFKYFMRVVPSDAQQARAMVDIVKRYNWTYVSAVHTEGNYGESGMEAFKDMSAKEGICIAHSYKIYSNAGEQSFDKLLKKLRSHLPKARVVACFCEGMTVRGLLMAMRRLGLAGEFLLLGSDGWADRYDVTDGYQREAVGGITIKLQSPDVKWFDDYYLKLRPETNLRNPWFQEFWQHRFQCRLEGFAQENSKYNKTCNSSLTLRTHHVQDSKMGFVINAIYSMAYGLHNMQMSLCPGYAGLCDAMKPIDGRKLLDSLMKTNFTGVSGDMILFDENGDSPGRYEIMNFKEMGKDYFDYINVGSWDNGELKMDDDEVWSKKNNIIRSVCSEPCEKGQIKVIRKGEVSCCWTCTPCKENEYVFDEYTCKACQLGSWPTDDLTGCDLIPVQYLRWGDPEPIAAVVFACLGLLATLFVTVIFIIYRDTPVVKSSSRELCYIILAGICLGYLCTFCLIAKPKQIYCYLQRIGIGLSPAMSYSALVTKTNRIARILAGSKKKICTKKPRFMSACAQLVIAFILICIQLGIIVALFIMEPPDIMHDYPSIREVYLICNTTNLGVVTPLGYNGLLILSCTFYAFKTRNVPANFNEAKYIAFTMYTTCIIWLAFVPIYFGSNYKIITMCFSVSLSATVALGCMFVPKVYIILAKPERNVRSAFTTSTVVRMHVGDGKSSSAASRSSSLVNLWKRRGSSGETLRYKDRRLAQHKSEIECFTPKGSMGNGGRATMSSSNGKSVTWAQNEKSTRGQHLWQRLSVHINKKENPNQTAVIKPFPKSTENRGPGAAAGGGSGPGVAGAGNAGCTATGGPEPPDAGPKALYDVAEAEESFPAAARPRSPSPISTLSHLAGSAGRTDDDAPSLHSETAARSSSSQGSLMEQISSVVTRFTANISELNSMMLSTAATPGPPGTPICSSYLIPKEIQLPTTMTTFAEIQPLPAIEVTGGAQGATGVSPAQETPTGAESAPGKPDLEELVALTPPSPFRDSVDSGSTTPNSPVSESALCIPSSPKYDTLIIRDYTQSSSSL

[3] = biological target: Metabotropic glutamate receptor 1 (Rattus norvegicus, UniProt P23385); assay: Negative allosteric modulation of rat mGluR1 expressed in HEK293 cells assessed as inhibition of glutamate induced calcium mobilization by calcium mobilization assay
Chain of Metabotropic glutamate receptor 1 (P23385 whole entry): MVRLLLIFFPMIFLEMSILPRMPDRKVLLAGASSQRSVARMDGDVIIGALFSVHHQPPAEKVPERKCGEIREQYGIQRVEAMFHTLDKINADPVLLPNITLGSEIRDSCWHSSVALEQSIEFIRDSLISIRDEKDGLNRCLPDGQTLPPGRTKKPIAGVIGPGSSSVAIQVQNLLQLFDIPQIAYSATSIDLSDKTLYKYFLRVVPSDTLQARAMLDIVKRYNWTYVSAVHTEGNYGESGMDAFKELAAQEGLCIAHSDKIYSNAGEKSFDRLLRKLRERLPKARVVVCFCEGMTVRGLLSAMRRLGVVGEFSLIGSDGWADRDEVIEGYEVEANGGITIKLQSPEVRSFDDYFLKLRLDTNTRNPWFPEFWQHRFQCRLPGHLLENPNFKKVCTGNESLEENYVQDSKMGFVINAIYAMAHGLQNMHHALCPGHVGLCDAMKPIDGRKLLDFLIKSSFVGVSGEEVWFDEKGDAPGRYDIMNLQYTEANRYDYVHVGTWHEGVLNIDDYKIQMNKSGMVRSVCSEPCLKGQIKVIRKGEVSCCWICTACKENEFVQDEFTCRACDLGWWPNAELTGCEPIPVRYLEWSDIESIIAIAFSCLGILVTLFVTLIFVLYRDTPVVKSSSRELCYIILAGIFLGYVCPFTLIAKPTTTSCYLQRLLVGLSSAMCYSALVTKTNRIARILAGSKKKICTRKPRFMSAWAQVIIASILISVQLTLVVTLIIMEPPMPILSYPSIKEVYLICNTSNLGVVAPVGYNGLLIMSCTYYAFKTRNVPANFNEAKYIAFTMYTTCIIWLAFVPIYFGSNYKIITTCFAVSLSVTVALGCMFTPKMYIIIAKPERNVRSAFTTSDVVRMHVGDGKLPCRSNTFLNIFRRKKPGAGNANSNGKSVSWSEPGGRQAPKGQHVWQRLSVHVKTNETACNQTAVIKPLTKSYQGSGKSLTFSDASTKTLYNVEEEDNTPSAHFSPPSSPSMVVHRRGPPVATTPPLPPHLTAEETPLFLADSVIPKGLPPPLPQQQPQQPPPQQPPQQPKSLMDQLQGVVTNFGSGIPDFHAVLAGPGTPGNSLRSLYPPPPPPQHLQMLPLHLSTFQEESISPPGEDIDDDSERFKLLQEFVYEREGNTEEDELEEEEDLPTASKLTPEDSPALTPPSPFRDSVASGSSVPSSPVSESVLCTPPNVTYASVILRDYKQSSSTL

[4] = biological target: Metabotropic glutamate receptor 1 (Rattus norvegicus) (UniProt P23385); assay: Negative allosteric modulation of rat mGluR1 expressed in HEK293 cells assessed as calcium mobilization at 30 uM by calcium mobilization assay relative to 100 uM glutamate
Chain of Metabotropic glutamate receptor 1 (Rattus norvegicus) (P23385 19-1199 limits assumed): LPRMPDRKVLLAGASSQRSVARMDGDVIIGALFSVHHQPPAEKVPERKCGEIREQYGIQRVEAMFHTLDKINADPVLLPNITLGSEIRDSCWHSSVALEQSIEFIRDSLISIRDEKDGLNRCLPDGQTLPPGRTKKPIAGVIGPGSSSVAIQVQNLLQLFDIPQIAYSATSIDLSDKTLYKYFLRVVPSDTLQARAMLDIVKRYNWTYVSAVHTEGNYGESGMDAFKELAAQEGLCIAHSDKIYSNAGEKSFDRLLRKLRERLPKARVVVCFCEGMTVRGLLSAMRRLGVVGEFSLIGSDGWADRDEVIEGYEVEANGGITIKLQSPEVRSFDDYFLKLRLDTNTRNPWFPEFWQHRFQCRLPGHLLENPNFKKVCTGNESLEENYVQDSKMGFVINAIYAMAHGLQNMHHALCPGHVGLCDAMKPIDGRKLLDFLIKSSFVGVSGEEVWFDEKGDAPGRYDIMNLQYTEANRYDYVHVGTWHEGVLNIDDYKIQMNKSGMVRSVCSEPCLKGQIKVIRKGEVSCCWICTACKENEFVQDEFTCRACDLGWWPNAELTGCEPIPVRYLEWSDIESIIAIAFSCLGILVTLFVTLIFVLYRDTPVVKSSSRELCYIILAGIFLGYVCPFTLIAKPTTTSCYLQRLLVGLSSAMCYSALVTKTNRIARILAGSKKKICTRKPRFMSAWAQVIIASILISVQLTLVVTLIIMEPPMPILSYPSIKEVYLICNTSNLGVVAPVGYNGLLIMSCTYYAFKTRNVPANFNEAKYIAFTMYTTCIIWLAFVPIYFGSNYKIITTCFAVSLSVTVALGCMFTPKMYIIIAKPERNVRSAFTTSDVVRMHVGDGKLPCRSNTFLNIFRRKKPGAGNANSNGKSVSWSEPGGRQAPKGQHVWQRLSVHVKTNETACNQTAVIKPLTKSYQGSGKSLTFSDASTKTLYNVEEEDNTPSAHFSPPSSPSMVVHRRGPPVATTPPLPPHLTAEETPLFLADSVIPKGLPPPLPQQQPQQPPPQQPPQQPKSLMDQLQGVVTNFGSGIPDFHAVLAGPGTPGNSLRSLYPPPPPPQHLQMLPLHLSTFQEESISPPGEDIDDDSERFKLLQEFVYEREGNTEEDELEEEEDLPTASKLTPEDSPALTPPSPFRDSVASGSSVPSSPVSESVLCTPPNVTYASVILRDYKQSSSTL

Compound | %max [1] [%] | IC50 ([2]; hek293, read-out: IC50) [µM] | IC50 ([2]; read-out: pIC50 (converted)) [µM] | IC50 [3] [µM] | %max [4] [%] | IC50 ([2]; read-out: IC50) [µM] | pIC50 ([2]; hek293)
c1ccn2nc3c(N[C@H]4C[C@@H]5CC[C@H]4C5)ncnc3c2c1 | 9.9 | > 10 | > 10 | 0.232 | 2.5 |  | 
c1ccn2nc3c(NC4CCCCCC4)ncnc3c2c1 | 20 | > 10 | > 10 | 0.225 | 2 |  | 
c1ccn2nc3c(NC4CCCCC4)ncnc3c2c1 |  |  | > 31.6 |  | -0.5 | > 30 | 
CC(C)Nc1nc(N[C@H]2CC[C@H](C)CC2)c2nn3ccccc3c2n1 |  |  | > 31.6 | > 30 |  | > 30 | 
C[C@@H]1[C@H]2C[C@@H](C[C@H]1Nc1ncnc3c1nn1ccccc31)C2(C)C | 9 | > 10 | > 10 | 0.152 | 2.7 |  | 
Cc1nc(N[C@H]2C[C@H]3CC[C@@]2(C)C3(C)C)c2nn3ccccc3c2n1 |  |  | > 31.6 |  | 7.1 | > 30 | 
C[C@@H](Nc1ncnc2c1nn1ccccc21)C1CC1 |  |  | > 31.6 | > 10 | 71.6 | > 30 | 
COCCNc1nc(N[C@H]2CC[C@H](C)CC2)c2nn3ccccc3c2n1 |  |  | > 31.6 | > 30 |  | > 30 | 
C[C@H](Nc1ncnc2c1nn1ccccc21)C(C)(C)C |  |  | > 31.6 |  | -0.2 | > 30 | 

Now from value to compound:

%max [1] [%] | IC50 ([2]; hek293, read-out: IC50) [µM] | IC50 ([2]; read-out: pIC50 (converted)) [µM] | IC50 [3] [µM] | %max [4] [%] | IC50 ([2]; read-out: IC50) [µM] | pIC50 ([2]; hek293) | Compound
 |  | > 31.6 | > 10 | 12.6 | > 30 |  | CCC(C)(C)Nc1ncnc2c1nn1ccccc21
61.8 |  |  |  | 0.9 | > 10 | < 5 | C[C@H](Nc1ncnc2c1nn1ccccc21)C1CCCCC1
4.8 |  |  | 0.148 | 2.6 | 2.36 |  | c1ccn2nc3c(NC45CC6CC(CC(C6)C4)C5)ncnc3c2c1
1.3 |  |  | 0.094 | 1.9 | 3.29 |  | c1ccn2nc3c(NC4CCCCCCC4)ncnc3c2c1
3.4 |  |  | 0.084 | 2.9 | 1.75 |  | c1ccn2nc3c(NC4C5CC6CC(C5)CC4C6)ncnc3c2c1 (stereo not drawn)
1.3 |  |  | 0.341 | 1.5 | 3.6 |  | CC(C)(C)CCNc1ncnc2c1nn1ccccc21
